Values quoted from earlier work in US11654127B2, “Composition for use in the prevention and/or treatment of Oncologic Treatment Induced Orogastrointestinal Mucositis” (Mucosa Innovations, S.L., priority 2017, dated 2023).

Tested on: OTIOM
Conditions: saliva stimulant

SMILES: CC[C@@H]1C(=O)OC[C@@H]1Cc1cncn1C [pilocarpine]
- effect in preventing or treating OTIOM: no beneficial effect
